US10683216B2, “Selective adsorbent fabric for water purification” (Chemica Technologies, Inc., priority 2013, dated 2020)

What was measured:
[1] = Kinetics of adsorption of organic toxins to ACF-SBX in Standard Synthetic Test Water; details: STW, pH 6.9~7.0; for ACF-SBX 50% (estimated time to achieve designated toxin removal): 50% removal; for ACF-SBX >95% (estimated time to achieve designated toxin removal): >95% removal
[2] = Kinetics of adsorption of organic toxins to ACF-H in Standard Synthetic Test Water; details: STW, pH 6.9~7.0; for ACF-H 50% (estimated time to achieve designated toxin removal): 50% removal; for ACF-H >95% (estimated time to achieve designated toxin removal): >95% removal
[3] = Kinetics of adsorption of organic toxins to ACF-OH in Standard Synthetic Test Water; details: STW, pH 6.9~7.0; for ACF-OH 50% (estimated time to achieve designated toxin removal): 50% removal; for ACF-OH removal reached, in brackets in the >95% column: >95% not reached; for ACF-OH >95% (estimated time to achieve designated toxin removal): >95% removal
[4] = Log P (logarithm of measured partition coefficient)

Structure (SMILES)	ACF-SBX 50% (estimated time to achieve designated toxin removal) [1] [min]	ACF-SBX >95% (estimated time to achieve designated toxin removal) [1] [min]	ACF-H 50% (estimated time to achieve designated toxin removal) [2]	ACF-H >95% (estimated time to achieve designated toxin removal) [2] [min]	ACF-OH 50% (estimated time to achieve designated toxin removal) [3] [min]	ACF-OH removal reached, in brackets in the >95% column [3]	logP (physchem)	ACF-OH >95% (estimated time to achieve designated toxin removal) [3] [min]	logP [4]	ACF-H removal reached, in brackets in the >95% column ([2]; >95% not reached)	Log P ([4]; logarithm of measured partition coefficient)
Oc1ccc(Cl)cc1Cl [2,4-dichlorophenol]	2.3	30.0	1.5 min	30.0	2.6	(92%)	3.17				
O=[N+]([O-])c1ccc(O)cc1 [4-nitrophenol]	1.5	20.0	0.8 min	20.0	5.0			60.0			
CCCCCCCCCc1ccc(O)cc1 [4-nonylphenol]	5.0	45.0	2.0 min	30.0	57.0	(73%)	5.76				
C[C@]12CC[C@@H]3c4ccc(O)cc4CC[C@H]3[C@@H]1CC[C@@H]2O [17β-estradiol]	0.5	10.0	0.5 min	10.0	0.5			50.0			
CCCCC(CC)COC(=O)c1ccccc1C(=O)OCC(CC)CCCC (stereo not shown) [DEHP, bis(2-ethylhexyl)phthalate]	3.8	20.0	20.0 min	80.0	43.3	(92%)			7.8		
CCN(CC)N=O [NDEA, N-nitrosodiethylamine]	4.6	60.0	3.8 min		30.0	(59%)	0.48			(93%)	
c1ccc2cc3ccccc3cc2c1 [anthracene]	0.4	12.5	^♦0.5 min	53.0	0.4			30.0			
CCNc1nc(Cl)nc(NC(C)C)n1 [atrazine]	1.6	10.0	2.0 min	20.0	6.0	(90%)	2.61				
CC(C)(c1ccc(O)cc1)c1ccc(O)cc1 [bisphenol A]	4.0	30.0	5.0 min	30.0	45.0	(70%)	3.32				
Cc1ccc(S(=O)(=O)[N-]Cl)cc1.[Na+] [chloramine-T]	3.3	25.0	3.3 min	25.0	50.0	(82%)					
Clc1ccccc1 [chlorobenzene]	0.3	2.0	0.3 min	2.0	0.3			2.0			
Brc1c(Br)c(Br)c(Oc2c(Br)c(Br)c(Br)c(Br)c2Br)c(Br)c1Br [deca-BDE, decabromodiphenyl ether]	0.5		0.4 min				9.97				
CCOC(=O)c1ccccc1C(=O)OCC [diethyl phthalate]	3.5	25.0	5.0 min	50.0	60.0	(69%)	2.42				
CN(C)C(=O)Nc1ccc(Cl)c(Cl)c1 [diuron]	3.0	15.0	3.0 min	15.0	30.0			55.0			
CCc1ccccc1 [ethylbenzene]	0.3		0.3 min		0.3			0.5			
Clc1ccccc1Cl [o-dichlorobenzene]	0.8	3.0	1.5 min	3.0	1.5		3.38	3.0			
Cc1ccc(O)cc1 [p-cresol]							1.97				
Clc1ccc(Cl)cc1 [p-dichlorobenzene]	1.0	2.0	1.0 min	2.0	1.0			2.0			3.44
Oc1cc(Cl)ccc1Oc1ccc(Cl)cc1Cl [triclosan]	1.7	46.7	2.5 min	55.0	26.0	(91%)			4.53		
O=c1[nH]c(=O)c2[nH]c(=O)[nH]c2[nH]1 [uric acid]	3.0	30.0	3.0 min	30.0	15.0			60.0	-2.92		
